Test results as given in the supplement of paper PMC10307832.

What was measured:
Experiment in all cases: relative viability (nuclei count vs DMSO), 5 days (fraction); higher = more cells survive
Tanzisertib + Tozasertib = compound: O[C@H]1CC[C@H](Nc2ncc3nc(Nc4c(F)cc(F)cc4F)n([C@H]4CCOC4)c3n2)CC1 [Tanzisertib] + Cc1cc(Nc2cc(N3CCN(C)CC3)nc(Sc3ccc(NC(=O)C4CC4)cc3)n2)n[nH]1 [Tozasertib] (partner 0.1 µM)
Method in brief: (§1)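 Dosing by pin tool came one day after lung cancer cell lines were seeded in 1536-well plates, using either one drug or a fixed anchor-drug dose plus five library-drug doses (not always all listed) in √10 steps. After 5 days, nuclei were counted on 4× images. Relative viability is treated-well nuclei count divided by vehicle-well nuclei count, and values are medians of duplicate plates.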

[1] = compound: C[C@@H](N)c1ccc(C(=O)Nc2ccnc3[nH]ccc23)cc1 + Nc1nc2[nH]cc(CCc3ccc(C(=O)N[C@@H](CCC(=O)O)C(=O)O)cc3)c2c(=O)[nH]1 [Pemetrexed] (partner 0.2 µM)
Method in brief: as §1

Tanzisertib + Lapatinib = compound: O[C@H]1CC[C@H](Nc2ncc3nc(Nc4c(F)cc(F)cc4F)n([C@H]4CCOC4)c3n2)CC1 [Tanzisertib] + CS(=O)(=O)CCNCc1ccc(-c2ccc3ncnc(Nc4ccc(OCc5cccc(F)c5)c(Cl)c4)c3c2)o1 [Lapatinib] (partner 2 µM)
Method in brief: as §1

Tanzisertib + Bortezomib = compound: O[C@H]1CC[C@H](Nc2ncc3nc(Nc4c(F)cc(F)cc4F)n([C@H]4CCOC4)c3n2)CC1 [Tanzisertib] + CC(C)C[C@H](NC(=O)[C@H](Cc1ccccc1)NC(=O)c1cnccn1)B(O)O [Bortezomib] (partner 0.002 µM)
Method in brief: as §1

Cell Line	relative viability (Tanzisertib + Tozasertib; first compound 0.08 µM)	relative viability (Tanzisertib + Tozasertib; first compound 0.253 µM)	relative viability (Tanzisertib + Tozasertib; first compound 0.8 µM)	relative viability (Tanzisertib + Tozasertib; first compound 2.53 µM)	relative viability (Tanzisertib + Tozasertib; first compound 8 µM)	relative viability ([1]; first compound 0.04 µM)	relative viability ([1]; first compound 0.1265 µM)	relative viability ([1]; first compound 0.4 µM)	relative viability ([1]; first compound 1.265 µM)	relative viability ([1]; first compound 4 µM)	relative viability (Tanzisertib + Lapatinib; first compound 0.08 µM)	relative viability (Tanzisertib + Lapatinib; first compound 0.253 µM)	relative viability (Tanzisertib + Lapatinib; first compound 0.8 µM)	relative viability (Tanzisertib + Lapatinib; first compound 2.53 µM)	relative viability (Tanzisertib + Lapatinib; first compound 8 µM)	relative viability (Tanzisertib + Bortezomib; first compound 0.08 µM)	relative viability (Tanzisertib + Bortezomib; first compound 0.253 µM)	relative viability (Tanzisertib + Bortezomib; first compound 0.8 µM)	relative viability (Tanzisertib + Bortezomib; first compound 2.53 µM)	relative viability (Tanzisertib + Bortezomib; first compound 8 µM)
NCI-H2170	0.881	0.789	0.669	0.717	0.651	0.284	0.249	0.271	0.277	0.263	0.285	0.252	0.26	0.262	0.253	–	–	–	–	–
HCC-366	0.105	0.0977	0.114	0.0525	0.0508	0.154	0.148	0.163	0.241	0.184	0.985	1.06	1.1	1.07	1.03	1.08	1.03	1.1	0.995	1.01
NCI-H2347	0.569	–	0.664	0.682	0.365	0.41	0.424	0.452	0.388	0.403	1.05	1.01	0.971	1.07	0.869	0.737	0.837	1.27	1.29	0.628
COR-L 105	0.386	0.366	0.323	0.388	0.331	1	1.12	0.94	0.98	0.619	0.379	0.355	0.353	0.332	0.275	0.818	0.708	0.99	0.877	0.482
201T	0.989	0.923	0.943	0.866	0.875	0.316	0.297	0.382	0.29	0.314	1.04	1.02	0.997	1.02	1.07	1.08	1.17	1.1	1.12	1.08
NCI-H2126	0.91	0.872	0.85	0.813	0.859	0.697	0.684	0.764	0.57	0.738	0.772	0.807	0.82	0.694	0.724	1.11	1.18	1.09	1.11	1.2
LC-2-ad	0.479	0.412	0.495	0.415	0.34	0.263	0.267	0.248	0.279	0.259	0.991	0.978	1.1	0.989	0.868	1.05	1.08	1.05	1.09	1.01
NCI-H2085	0.9	0.822	0.914	0.644	0.59	0.825	0.863	0.732	0.733	0.668	0.794	0.726	0.818	0.83	0.755	1.11	1.08	0.992	1.07	1.09
NCI-H358	0.119	0.0917	0.106	0.107	0.117	0.183	0.189	0.18	0.165	0.16	0.536	0.474	0.413	0.436	0.321	–	–	–	–	–
H3255	0.736	0.607	0.675	0.588	0.427	0.556	0.554	0.552	0.555	0.501	0.231	0.29	0.256	0.256	0.205	0.829	0.796	0.819	0.845	0.427
NCI-H2228	0.333	0.385	0.241	0.254	0.238	0.342	0.385	0.302	0.347	0.327	1.27	1.15	1.13	1.23	1.13	1.11	0.948	1.08	0.801	0.721
CAL-12T	0.361	0.409	0.307	0.264	0.266	1.23	1.39	1.43	1.49	1.27	0.635	0.617	0.795	0.762	0.72	1.04	1.2	1.18	1.01	0.825
A-427	0.244	0.196	0.214	0.198	0.2	0.827	0.985	0.815	0.671	0.726	1.19	1.18	1.04	1.04	1.12	1.09	0.938	1.01	0.96	0.927
HARA	0.136	0.112	0.109	0.0917	0.103	0.191	0.209	0.257	0.249	0.236	0.889	0.809	0.81	0.797	0.771	1.22	1.16	1.18	1.17	1.18
NCI-H1793	0.289	0.287	0.303	0.246	0.223	1.02	0.978	0.94	–	1	0.737	0.873	0.74	0.608	0.643	–	–	–	–	–
NCI-H1623	0.482	0.414	0.482	0.47	0.405	–	–	–	–	–	–	–	–	–	–	–	–	–	–	–
NCI-H2009	0.804	0.72	0.775	0.754	0.661	0.984	0.975	0.943	0.866	0.765	1.12	0.983	0.847	1.05	0.296	1.34	1	1.01	1.13	0.968
